Laboratory results: PubChem BioAssay (NCI)
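Briefly, cells in 96-well plates were exposed to five compound concentrations for 48 h, and endpoints were estimated by linear interpolation. The concentration for 50% growth inhibition is given as GI50. TGI: total growth inhibition.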

Experiments:
Assay in all cases: DTP human tumour cell line panel, 48 h
A498 renal = system: A498 renal
CCRF-CEM leukemia = system: CCRF-CEM leukemia
HOP-62 NSCLC = system: HOP-62 NSCLC
K-562 leukemia = system: K-562 leukemia
NCI-H226 lung = system: NCI-H226 lung
SF-539 CNS = system: SF-539 CNS
SK-MEL-2 melanoma = system: SK-MEL-2 melanoma
SK-OV-3 ovarian = system: SK-OV-3 ovarian
SNB-75 CNS = system: SNB-75 CNS
TK-10 renal = system: TK-10 renal

Row | Compound | GI50 (A498 renal) [µM] | TGI (A498 renal) [µM] | GI50 (CCRF-CEM leukemia) [µM] | TGI (CCRF-CEM leukemia) [µM] | GI50 (HOP-62 NSCLC) [µM] | TGI (HOP-62 NSCLC) [µM] | GI50 (K-562 leukemia) [µM] | TGI (K-562 leukemia) [µM] | GI50 (NCI-H226 lung) [µM] | TGI (NCI-H226 lung) [µM] | GI50 (SF-539 CNS) [µM] | TGI (SF-539 CNS) [µM] | GI50 (SK-MEL-2 melanoma) [µM] | TGI (SK-MEL-2 melanoma) [µM] | GI50 (SK-OV-3 ovarian) [µM] | TGI (SK-OV-3 ovarian) [µM] | GI50 (SNB-75 CNS) [µM] | TGI (SNB-75 CNS) [µM] | GI50 (TK-10 renal) [µM] | TGI (TK-10 renal) [µM]
1 | CC[C@H](CC#N)OC(=O)N[C@@H](C)c1cccc(NC(=O)Nc2ccc(-c3cnco3)c(OC)c2)c1 | 0.138 | 20.8 | < 0.023 | 35.8 | 0.0856 | 36.8 | 0.0263 | > 52.6 | 2 | 38.4 | 0.0386 | 28 | 4.05 | 34.8 | 0.0722 | > 63.8 | 0.11 | 27.8 | 0.171 | 28.3
2 | COc1ccc(NC(=O)c2cc(OC)c(OC)c(OC)c2)cc1 | – | > 100 | – | > 100 | – | 99.7 | – | > 100 | – | > 100 | – | > 100 | – | 65.2 | – | > 100 | – | > 100 | – | > 100
3 | Clc1nc(Cl)c2c(ncn2C/C=C\Cn2cnc3c(Cl)nc(Cl)nc32)n1 | 12.4 | 25.6 | 0.573 | 2.57 | 2.35 | 5.21 | 0.801 | 21.1 | 1.76 | 3.84 | 2.38 | 5.46 | 1.41 | 2.73 | 2.48 | 9.07 | 2.19 | 6.68 | 1.85 | 3.45
4 | CC(C)NC(=O)OCCS(=O)c1c(Cl)c(Cl)nn1C (centres undefined) | – | > 100 | – | > 100 | – | > 100 | – | > 100 | – | > 100 | – | > 100 | – | > 100 | – | > 100 | – | > 100 | – | > 100
5 | CCCCCCCCCCCCCC(=O)CBr | – | 35.5 | – | 2.6 | – | 50.6 | – | 17.4 | – | 35.1 | – | 30.7 | – | 26.3 | – | 43.2 | – | 16 | – | 29.7
6 | COc1ccc2oc3cccc(NCCN(C)C)c3c(=O)c2c1 | – | 33.8 | – | 32.1 | – | 29.2 | – | 25.3 | – | 32 | – | 28.1 | – | 30.2 | – | 28.7 | – | 31 | – | 28.2
7 | Oc1ccc(CCCCCCc2ccc(O)cc2)cc1 | 11.4 | 23.5 | 0.0471 | 32.8 | 10.3 | 23.4 | 6.81 | > 75.1 | 15.7 | 32.9 | 2.46 | 13.7 | 16 | 35.5 | 11.8 | 34.1 | 11.6 | 35.3 | 19.7 | > 57.3
8 | N#CC(C(=O)C(=O)NCCCNC(=O)C(=O)C(C#N)c1ccccc1)c1ccccc1 (centres undefined) | – | > 100 | – | > 100 | – | > 100 | – | > 100 | – | > 100 | – | > 100 | – | > 100 | – | > 100 | – | > 100 | – | > 100
9 | Clc1nc(Cl)c2ncn(Cc3ccc(COc4cccc(OCc5ccc(Cn6cnc7c(Cl)nc(Cl)nc76)cc5)c4)cc3)c2n1 | 39.2 | > 100 | 17.2 | > 100 | 63.4 | > 100 | 25.9 | > 100 | 21 | 60.3 | > 100 | > 100 | 28.2 | > 100 | > 100 | > 100 | 8.39 | > 100 | 27 | > 100
10 | N[C@H](C(=O)O)[C@H](Cl)CC(=O)O | – | > 100 | – | > 100 | – | > 100 | – | > 100 | – | > 100 | – | > 100 | – | > 100 | – | > 100 | – | > 100 | – | > 100
11 | CC(CNC(Cc1ccccc1)c1ccccc1)NC(Cc1ccccc1)c1ccccc1 (centres undefined) | 2.26 | 5.02 | 2.74 | 7.84 | 3.41 | 12.4 | 2.48 | 6.41 | 1.94 | 4.09 | 1.93 | 3.69 | 2.18 | 4.28 | 5.34 | 16.8 | 2.07 | 11.7 | 3.22 | 12.5
12 | C[C@H]1[C@H](C)CC[C@]2(C(=O)O)CC[C@]3(C)C(=CC[C@@H]4[C@@]5(C)C/C(=C/c6cccnc6)[C@H](O)C(C)(C)[C@@H]5CC[C@]43C)[C@H]12 | > 100 | > 100 | 6.43 | 40.8 | 16.4 | 55.6 | 6.79 | > 100 | 15.3 | 56.8 | 15.6 | 36.3 | 13.9 | 44.4 | 19.9 | > 100 | 28.6 | > 100 | 28.4 | > 100
13 | CC(=O)c1cc([N+](=O)[O-])ccc1OCC(=O)O | – | > 100 | – | > 100 | – | > 100 | – | > 100 | – | > 100 | – | > 100 | – | > 100 | – | > 100 | – | > 100 | – | > 100
14 | O=C1C(Cl)=C(Nc2cccc(O)c2)C(=O)N1c1cc(Cl)c(Cl)cc1Cl | – | 7.84 | 0.45 | > 100 | 21.3 | 36.9 | 17.4 | 40.3 | 14.7 | 40.9 | 14.9 | 34.3 | 15 | 29.6 | 20.8 | 65.3 | 16.4 | 31.3 | 23.8 | 48.6
15 | O=C(CN1CCN(c2ccccc2)CC1)N1CCc2c([nH]c3ccccc23)C1c1cccnc1 (centres undefined) | – | > 100 | – | > 100 | – | > 100 | – | > 100 | – | > 100 | – | 57.8 | – | > 100 | – | > 88.3 | – | 23.4 | – | > 45.7
